Data reported in PubChem BioAssay (NCI).
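All cell lines were grown in 96-well plates and treated with compound for 48 hours. TGI: concentration producing complete growth inhibition.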

Columns and labels:
Test in all cases: NCI tumour cell line growth inhibition, 48 h
DU-145 prostate = test system: DU-145 prostate
NCI-H460 lung = test system: NCI-H460 lung
MDA-MB-231 breast = test system: MDA-MB-231 breast
TK-10 renal = test system: TK-10 renal
COLO 205 colon = test system: COLO 205 colon
OVCAR-3 ovarian = test system: OVCAR-3 ovarian
CCRF-CEM leukemia = test system: CCRF-CEM leukemia
LOX IMVI melanoma = test system: LOX IMVI melanoma
KM12 colon = test system: KM12 colon
HL-60(TB) leukemia = test system: HL-60(TB) leukemia
ACHN renal = test system: ACHN renal
OVCAR-4 ovarian = test system: OVCAR-4 ovarian
SK-OV-3 ovarian = test system: SK-OV-3 ovarian
SW-620 colon = test system: SW-620 colon
HCC-2998 colon = test system: HCC-2998 colon
MDA-N = test system: MDA-N
MOLT-4 leukemia = test system: MOLT-4 leukemia
SK-MEL-28 melanoma = test system: SK-MEL-28 melanoma
A498 renal = test system: A498 renal

Compound	TGI (DU-145 prostate)	TGI (NCI-H460 lung)	TGI (MDA-MB-231 breast)	TGI (TK-10 renal)	TGI (COLO 205 colon)	TGI (OVCAR-3 ovarian)	TGI (CCRF-CEM leukemia)	TGI (LOX IMVI melanoma)	TGI (KM12 colon)	TGI (HL-60(TB) leukemia)	TGI (ACHN renal)	TGI (OVCAR-4 ovarian)	TGI (SK-OV-3 ovarian)	TGI (SW-620 colon)	TGI (HCC-2998 colon)	TGI (MDA-N)	TGI (MOLT-4 leukemia)	TGI (SK-MEL-28 melanoma)	TGI (A498 renal)
CC(=O)N(CN1C(=O)CCC1C(=O)O)c1ccc(C)cc1 (configuration not stated)	> 100 µM	> 100 µM	> 100 µM	> 100 µM	> 100 µM	> 100 µM	> 100 µM	> 100 µM	> 100 µM	> 100 µM	> 100 µM	> 100 µM	> 100 µM	> 100 µM	> 100 µM	> 100 µM	> 100 µM	> 100 µM	> 100 µM
c1ccc(C2(c3ccccc3)S/C(=C3/SC(c4ccccc4)(c4ccccc4)c4ccccc43)c3ccccc32)cc1	> 100 µM	> 100 µM	> 100 µM	> 100 µM	> 100 µM	> 100 µM	> 100 µM	> 100 µM	> 100 µM	> 100 µM	> 100 µM	> 100 µM	> 100 µM	> 100 µM	> 100 µM	> 100 µM	> 100 µM	> 100 µM	> 100 µM
Nc1c(C(=O)c2ccc(Cl)cc2)[nH]c(Nc2ccc(Cl)cc2)c1C(=S)Nc1ccccc1	24.1 µM	20.8 µM	18.1 µM	16.5 µM	16.5 µM	12.9 µM	> 100 µM	16.6 µM	31.5 µM	> 100 µM	5.08 µM	5.14 µM	19.3 µM	51.9 µM	7.7 µM	21.5 µM	42.6 µM	14.4 µM	28.9 µM
Nc1nc(Cl)cc(NCC2(CO)CC(CCCc3ccccc3)C2)n1 (configuration not stated)	> 100 µM	> 100 µM	> 100 µM	> 100 µM	> 100 µM	> 100 µM	> 100 µM	> 100 µM	> 100 µM	> 100 µM	> 100 µM	> 100 µM	> 100 µM	> 100 µM	> 100 µM	> 100 µM	> 100 µM	> 100 µM	> 100 µM
O=C(N/C(=C\NC1=NCCS1)C(=O)N1CSC[C@@H]1C(=O)O)c1ccccc1	> 100 µM	> 100 µM	> 100 µM	> 100 µM	> 100 µM	> 100 µM	> 100 µM	> 100 µM	> 100 µM	> 100 µM	> 100 µM	> 100 µM	> 100 µM	> 100 µM	> 100 µM	> 100 µM	> 100 µM	> 100 µM	> 100 µM
CCCCC1CCCCCCc2[nH]c(/C=C3\N=C(c4ccc[nH]4)C=C3OC)cc21 (configuration not stated)	3.96 µM	2.92 µM	1.76 µM	3.18 µM	1.39 µM	< 0.0224 µM	0.566 µM		4.91 µM	0.0103 µM	1.12 µM	4.23 µM	7.37 µM	1.15 µM	1.02 µM	1.35 µM	0.0443 µM	0.492 µM	1.86 µM
CC(=O)Oc1c(C)cc2c(c1C)C(C)(C)CN2C(=O)C(C)(C)C	> 100 µM	> 100 µM	> 100 µM	> 100 µM	> 100 µM	> 100 µM	> 100 µM	> 100 µM	> 100 µM	> 100 µM	> 100 µM	> 100 µM	> 100 µM	> 100 µM	> 100 µM	> 100 µM	> 100 µM	> 100 µM	> 100 µM
C=CC(C)CCC(C/C=C(\C)CCCC(C)C)C(=C)CCCC(C)C (configuration not stated)	> 100 µM	> 100 µM	> 100 µM	> 100 µM	> 100 µM	> 100 µM	> 100 µM	> 100 µM	> 100 µM	> 100 µM	> 100 µM	> 100 µM	> 100 µM	> 100 µM	> 100 µM	> 100 µM	> 100 µM	> 100 µM	> 100 µM
COc1c(N2CCCCC2)c2c(=O)c3ccccc3oc2c2cc(C)oc12	77.5 µM	> 100 µM	44.2 µM	> 100 µM	18.3 µM	> 100 µM	> 100 µM	86.5 µM	62.4 µM	58 µM	53.7 µM	> 100 µM	> 100 µM	> 100 µM	> 100 µM	63.9 µM	> 100 µM	> 100 µM	61.6 µM
O=P1(N(CCCl)CCCl)Oc2c(Cl)cc(Cl)c(Cl)c2Cc2c(Cl)c(Cl)cc(Cl)c2O1	> 100 µM	> 100 µM	> 100 µM	> 100 µM	45.7 µM	> 100 µM	> 100 µM	> 100 µM	> 100 µM	> 100 µM	> 100 µM	> 100 µM	> 100 µM	> 100 µM	> 100 µM	> 100 µM	> 100 µM	> 100 µM	> 100 µM
COCn1c(=O)n(C)c(=O)c2c1nc1c(c(=O)n(C)c(=O)n1COC)[n+]2[O-]	94.9 µM	24.9 µM	44.4 µM	58.8 µM	31.8 µM	44.1 µM	27.4 µM	27.7 µM	> 100 µM	39.1 µM	38 µM	43.4 µM	36.1 µM	> 100 µM	18.1 µM	76.9 µM	29.5 µM	> 100 µM	82.8 µM
Nc1nc(N)c2c(CCc3ccc(C(=O)N[C@@H](CCC(=O)O)C(=O)O)cc3)ccnc2n1	> 100 µM	> 100 µM	> 100 µM	> 100 µM	> 100 µM	> 100 µM	> 100 µM	> 100 µM	> 100 µM	> 100 µM	> 100 µM	> 100 µM	> 100 µM	> 100 µM	0.0952 µM	> 100 µM	> 100 µM	> 100 µM	> 100 µM
